In US3963716A, “Novel 1-phthalazone derivative, a process for its preparation and a pharmaceutical composition containing it” (priority 1973, dated 1976):
Read-outs that look alike come from different tables or passages of the source.

Tests used:
[1] = tested on: human platelet; assay: human platelet aggregation in vitro induced by ADP or adrenaline (CPRP); assay type: cell-based; conditions: 200 s, intensity with compound vs saline; for activity at 40 µg/mL: 40 μg/ml; for activity at 80 µg/mL: 80 μg/ml; for activity at 300 µg/mL: 300 μg/ml
Description: Samples of human CPRP (citrated platelet-rich plasma) were incubated at 37°C. for 200 sec. with 1/10 volume of saline containing various amount of the compound to be tested. To the mixture was then added ADP (3μMole) or adrenaline (1 μg/ml). Intensity of primary and secondary aggregation was measured with a platelet aggregation meter (Chrono-Log, Model 300).
Intensity of ADP- or adrenaline-induced aggregation of each sample, which was incubated with the compound, was compared with that of the same sample incubated with saline. The ratio was expressed as a percentage of intensity of aggregation with the compound against one with saline.
The intensity of primary and secondary aggregation of platelets was measured by the procedure described in H. Yamazaki, T. Sano, et al.; title[Platelet Functions in Thromboembolic Disorders] Thrombosis et Diatheses Haemorrhagica "in press" and the references cited therein.

[2] = tested on: cyclic AMP phosphodiesterase; assay: inhibition of cyclic AMP phosphodiesterase, human platelet; assay type: biochemical; conditions: 50% inhibition of cyclic AMP phosphodiesterase; read-out: I50, Platelet (human)
Description: (§1) The procedure of the experiment was carried out in accordance with the method described in H. Hidaka and M. Shibuya: title "A new assay of cyclic nucleotide phosphodiesterase and its application to humans", Biochemical Medicine, (in press).

[3] = biological target: cyclic AMP phosphodiesterase; assay: inhibition of cyclic AMP phosphodiesterase, aortic wall media (rabbit); assay type: biochemical; conditions: 50% inhibition of cyclic AMP phosphodiesterase; read-out: I50, Aortic Wall, Media (rabbit)
Description: as §1

[4] = read-out: Inhibition ratio, primary aggregation, ADP 3 μM
[5] = read-out: Inhibition ratio, primary aggregation, Adrenaline 1μg/ml
[6] = read-out: Inhibition ratio, secondary aggregation, ADP 3 μM
[7] = read-out: Inhibition ratio, secondary aggregation, Adrenaline 1μg/ml

Structure (SMILES) | activity at 40 µg/mL [1, 4] [%] | activity at 40 µg/mL [1, 5] [%] | activity at 40 µg/mL [1, 6] [%] | activity at 40 µg/mL [1, 7] [%] | activity at 80 µg/mL [1, 4] [%] | activity at 80 µg/mL [1, 5] [%] | activity at 80 µg/mL [1, 6] [%] | activity at 80 µg/mL [1, 7] [%] | activity at 300 µg/mL [1, 4] [%] | activity at 300 µg/mL [1, 5] [%] | activity at 300 µg/mL [1, 6] [%] | activity at 300 µg/mL [1, 7] [%] | IC50 [2] [µM] | IC50 [3] [µM]
CC(=O)Oc1ccccc1C(=O)O [Acetylsalicylic acid] | 98.9 ± 3.4 | 106 ± 3.3 | 78 ± 9.9 | 45 ± 7.8 | 95.7 ± 1.8 | 95.6 ± 5.2 | 70.2 ± 10.1 | 46.5 ± 7.9 | 109 ± 3.6 | 108 ± 2.6 | 75.5 ± 5.9 | 62.7 ± 10.7 | – | –
Cn1c(=O)c2c(ncn2C)n(C)c1=O [caffeine] | – | – | – | – | – | – | – | – | – | – | – | – | 350 | 460
